Test results as given in EPA's ToxValDB 9.5.

System: Rattus norvegicus
Details: short-term, duration: 28 days, oral, gavage, Sprague-Dawley

O=C(O)C(F)(F)C(F)(F)C(F)(F)C(F)(F)C(F)(F)C(F)(F)C(F)(F)C(F)(F)F [Perfluorononanoic acid] gave an NOEL (F, Organ weights_Thymus - Relative) of 25 mg/kg-day, an NOEL (F, Organ weights_Thyroid gland - Absolute) of 25 mg/kg-day and an NOEL (F, Organ weights_Thyroid gland - Relative) of 25 mg/kg-day. The LOEL (F, body weight) was 6.25 mg/kg-day, the LOEL (M, Clinical chemistry_Alanine aminotransferase) was 1.25 mg/kg-day and the LOEL (M, Clinical chemistry_Albumin) was 1.25 mg/kg-day. It also gave an LOEL (M, Clinical chemistry_Albumin/globulin ratio) of 0.625 mg/kg-day, an LOEL (M, Clinical chemistry_Alkaline phosphatase) of 1.25 mg/kg-day and an LOEL (M, Clinical chemistry_Aspartate aminotransferase) of 1.25 mg/kg-day. For the same compound, the LOEL (M, Clinical chemistry_Cholesterol) was 0.625 mg/kg-day, the NOEL (M, Clinical chemistry_Creatinine kinase) was 10 mg/kg-day and the LOEL (M, Clinical chemistry_Direct bilirubin) was 1.25 mg/kg-day. For the same compound, the LOEL (M, Clinical chemistry_Free thyroxine) was 0.625 mg/kg-day, the LOEL (M, Clinical chemistry_Globulin) was 0.625 mg/kg-day and the LOEL (M, Clinical chemistry_Indirect bilirubin) was 1.25 mg/kg-day. For the same compound, the LOEL (M, Clinical chemistry_Sorbitol dehydrogenase) was 1.25 mg/kg-day, the LOEL (M, Clinical chemistry_Testosterone) was 2.5 mg/kg-day and the LOEL (M, Clinical chemistry_Thyroid stimulating hormone) was 2.5 mg/kg-day. The LOEL (M, Clinical chemistry_Total bile acids) was 0.625 mg/kg-day, the LOEL (M, Clinical chemistry_Total bilirubin) was 1.25 mg/kg-day and the LOEL (M, Clinical chemistry_Total protein) was 0.625 mg/kg-day. The LOEL (M, Clinical chemistry_Total thyroxine) was 0.625 mg/kg-day, the LOEL (M, Clinical chemistry_Total triiodothyronine) was 2.5 mg/kg-day and the LOEL (M, Clinical chemistry_Triglycerides) was 0.625 mg/kg-day. For the same compound, the LOEL (M, Gene expression_Acox1) was 0.625 mg/kg-day, the LOEL (M, Gene expression_Acyl-CoA oxidase) was 0.625 mg/kg-day and the LOEL (M, Gene expression_Cyp2b1) was 0.625 mg/kg-day. The LOEL (M, Gene expression_Cyp2b2) was 0.625 mg/kg-day, the LOEL (M, Gene expression_Cyp4a1) was 0.625 mg/kg-day and the NOEL (M, Hematology_Erythrocytes) was 10 mg/kg-day. For the same compound, the NOEL (M, Hematology_Hematocrit) was 10 mg/kg-day, the NOEL (M, Hematology_Hemoglobin) was 10 mg/kg-day and the LOEL (M, Hematology_Mean corpuscular hemoglobin concentration) was 2.5 mg/kg-day. It also gave an LOEL (M, Hematology_Mean corpuscular volume) of 2.5 mg/kg-day, an NOEL (M, Hematology_Platelets) of 10 mg/kg-day and an LOEL (M, Hematology_Reticulocytes) of 0.625 mg/kg-day. The LOEL (M, Nonneoplastic effects_Bone marrow - Hypocellularity) was 2.5 mg/kg-day, the LOEL (M, Nonneoplastic effects_Epididymis - Duct, exfoliated germ cell) was 2.5 mg/kg-day and the LOEL (M, Nonneoplastic effects_Epididymis - Epithelium, apoptosis) was 5 mg/kg-day. For the same compound, the LOEL (M, Nonneoplastic effects_Epididymis - Hypospermia) was 5 mg/kg-day, the LOEL (M, Nonneoplastic effects_Forestomach - Epithelium, hyperplasia) was 2.5 mg/kg-day and the LOEL (M, Nonneoplastic effects_Forestomach - Inflammation, chronic active) was 2.5 mg/kg-day. It also gave an NOEL (M, Nonneoplastic effects_Kidney - Nephropathy, chronic progressive) of 10 mg/kg-day, an LOEL (M, Nonneoplastic effects_Liver - Hepatocyte, Necrosis) of 2.5 mg/kg-day and an LOEL (M, Nonneoplastic effects_Liver - Hepatocyte, cytoplasmic alteration) of 0.625 mg/kg-day. The LOEL (M, Nonneoplastic effects_Liver - Hepatocyte, hypertrophy) was 0.625 mg/kg-day, the LOEL (M, Nonneoplastic effects_Liver - Hepatocyte, vacuolization cytoplasmic) was 1.25 mg/kg-day and the LOEL (M, Nonneoplastic effects_Lymph nodes - Mandibular, atrophy) was 5 mg/kg-day. For the same compound, the LOEL (M, Nonneoplastic effects_Lymph nodes - Mesenteric, atrophy) was 5 mg/kg-day, the NOEL (M, Nonneoplastic effects_Nose - Olfactory epithelium, degeneration) was 10 mg/kg-day and the NOEL (M, Nonneoplastic effects_Nose - Olfactory epithelium, hyperplasia) was 10 mg/kg-day. The NOEL (M, Nonneoplastic effects_Nose - Olfactory epithelium, inflammation, suppurative) was 10 mg/kg-day, the NOEL (M, Nonneoplastic effects_Nose - Respiratory epithelium, hyperplasia) was 10 mg/kg-day and the NOEL (M, Nonneoplastic effects_Nose - Respiratory epithelium, inflammation, chronic active) was 10 mg/kg-day. The LOEL (M, Nonneoplastic effects_Spleen - Atrophy) was 5 mg/kg-day, the NOEL (M, Nonneoplastic effects_Spleen - Extramedullary hematopoiesis, increased) was 10 mg/kg-day and the LOEL (M, Nonneoplastic effects_Testes - Germinal epithelium, degeneration) was 2.5 mg/kg-day. For the same compound, the LOEL (M, Nonneoplastic effects_Testes - Interstitial cell, atrophy) was 2.5 mg/kg-day, the LOEL (M, Nonneoplastic effects_Testes - Seminiferous tubule, spermatid retention) was 2.5 mg/kg-day and the LOEL (M, Nonneoplastic effects_Thymus - Atrophy) was 2.5 mg/kg-day. For the same compound, the NOEL (M, Nonneoplastic effects_Thymus - Lymphocyte, apoptosis) was 10 mg/kg-day, the NOEL (M, Nonneoplastic effects_Thyroid gland - Follicular cell hypertrophy) was 10 mg/kg-day and the LOEL (M, Organ weights_Liver - Absolute) was 0.625 mg/kg-day. The LOEL (M, Organ weights_Liver - Relative) was 0.625 mg/kg-day, the LOEL (M, Organ weights_R. adrenal gland - Absolute) was 0.625 mg/kg-day and the LOEL (M, Organ weights_R. adrenal gland - Relative) was 2.5 mg/kg-day. For the same compound, the LOEL (M, Organ weights_R. kidney - Absolute) was 2.5 mg/kg-day, the LOEL (M, Organ weights_R. kidney - Relative) was 0.625 mg/kg-day and the LOEL (M, Organ weights_R. testis - Absolute) was 2.5 mg/kg-day. For the same compound, the LOEL (M, Organ weights_Spleen - Absolute) was 1.25 mg/kg-day, the LOEL (M, Organ weights_Spleen - Relative) was 1.25 mg/kg-day and the LOEL (M, Organ weights_Thymus - Absolute) was 1.25 mg/kg-day. It also gave an LOEL (M, Organ weights_Thymus - Relative) of 1.25 mg/kg-day, an LOEL (M, Organ weights_Thyroid gland - Absolute) of 2.5 mg/kg-day and an LOEL (M, Organ weights_Thyroid gland - Relative) of 2.5 mg/kg-day. It also gave an LOEL (M, Reproductive toxicity_Altered sperm parameters) of 1.25 mg/kg-day and an LOEL (M, body weight) of 1.25 mg/kg-day.
